The test system of one data set is HCEC-1ct cells. Kind of data set: Cell death by AnnexinV/PI flow cytometry in HCEC-1ct cells. Format: cell-based, human. Particulars: 24 hours, AS 0.5 nM and 100 nM, FIGS. 3J, 3K. As to the method: (§1) Cells were transfected with either FMRP antisense oligonucleotide (AS)(final concentration 0.5 nM and 100 nM) or FMRP sense oligonucleotide (S)(final concentration 100 nM). After 24 hours (FIGS. 3E, 3F, 3J and 3K) or 48 hours (FIG. 3H), cells were collected, washed two times in Annexin V (AV) buffer, stained with FITC-AnnexinV (final dilution 1:100; Immunotools, Friesoythe, Germany) according to the manufacturer's instructions, and incubated with […] of propidium iodide (PI) for 30 min at 4° C. Cells were also transfected with either FMRP sense oligonucleotide or FMRP AS oligonucleotide (final concentration 100 nM) for 36 hours and analyzed for activated caspase 3 and caspase 8. As positive and negative controls, cells were treated, respectively, with staurosporin (final concentration 1 μM, Sigma-Aldrich Milan, Italy) or Q-VD-OPh (a pan-caspase inhibitor; final concentration 1 μM) (R&D Systems, Inc, Minneapolis, Minn.). Additionally, 36 hours (FIGS. 4F and 4G) or 48 hours post-transfection (FIGS. 4D and 4E), cells were pulsed with […] bromodeoxyuridine for 60 minutes, fixed in 70% cold ethanol, and stored at −20° C. for at least 3 hours. […] Fluorescence was measured using Gallios Flow Cytometer (Beckman Coulter, Life Sciences, Pasadena, Calif., USA) and analyzed using Kaluza software (Beckman Coulter). […]

The test system of a further data set is MLKL. Kind of data set: Western blot of phospho-MLKL after FMRP antisense treatment. The class given is cell-based. Particulars: human CRC cell lines, 24 hours, FIGS. 6A, 6D. As to the method:
(§2) To confirm the association of FMRP with components of the necroptosis pathway, cells were left untreated or transfected with either FMRP antisense oligonucleotide (final concentration 0.5 nM and 100 nM) or FMRP sense oligonucleotide (final concentration 100 nM); incubated with a pMLKL inhibitor (necrosulfonamide, NSA; final concentration 1 μM)(Calbiochem); or a pRIPK1 inhibitor (necrostatinl, NEC1; final concentration 10 μM)(Cayman Chemical, Ann Arbor, Mich. USA). After 24 hours cells were collected and analyzed by Western blot, or stained with FITC-Annexin V and PI for flow cytometry analysis, as previously described in Examples 1-3.

The test system of data set [1] is HCT-116 cells. Kind of data set: Invasion across Matrigel-coated Transwell inserts. The class given is cell-based, human. Particulars: HCT-116, AS 0.5 nM, 48 hours, vs untreated or sense, FIGS. 8C, 8D. As to the method:
(§3) To investigate the role of FMRP in tumor cell migration and invasion, HCT-116 cells were seeded in each side of an Ibidi® culture insert and grown to confluence then left untreated (U) or transfected with sense FMRP oligonucleotide (S) (final concentration 0.5 nM) or antisense FMRP oligonucleotide (AS) (final concentration 0.5 nM). Additionally, HCT-116 cells were seeded in Transwell® inserts precoated with Matrigel®, and either left untreated (U) or transfected with sense oligonucleotide (S) (final concentration 100 nM) or antisense FMRP oligonucleotide (AS) (final concentration 0.5 nM) for 48 hours.

The subject of another data set is DLD-1 cell lines. Kind of data set: Cell cycle distribution by bromodeoxyuridine/PI flow cytometry. The class given is cell-based, human. To be noted: DLD-1 48 hours (FIGS. 4D, 4E); HCT-116 36 hours (FIGS. 4F, 4G); before induction of cell death. The procedure: as §1
Data set [2] relates to HCT-116 cells. Kind of data set: Cell migration (pseudo-wound closure) with Ibidi culture insert. The class given is cell-based, human. To be noted: HCT-116, AS 0.5 nM, T24 and T48, vs untreated or sense, FIGS. 8A, 8B. As to the method:
as §3
To determine whether MCC regulation of the E-cadherin/β-catenin complex is also required for the observed inhibition of colorectal cell line migration and invasion (e.g., FIGS. 8A and 8B), HCT-116 cells were seeded in each side of an Ibidi® culture insert and grown to confluence then left untreated (U) or transfected with sense oligonucleotide (S) (final concentration 0.5 nM) or antisense oligonucleotide (AS) (final concentration 0.5 nM) and/or siRNA Ctrl or siRNA MCC.

The next data set relates to RIPK1. Kind of data set: Western blot of RIPK1 and phospho-RIPK1 after FMRP antisense treatment. The class given is cell-based. Particulars: human CRC cell lines, 24 hours. The procedure: as §2
(In general: In western blotting, separated proteins are transferred to a membrane and probed.)

For another data set, the system named is DLD-1 cells. Briefly: Cell death by AnnexinV/PI flow cytometry in DLD-1 cells. Particulars: 24 hours, AS 0.5 nM and 100 nM, FIGS. 3E, 3F. Format: cell-based, human. As to the method: as §1
Another data set relates to caspase 8. Briefly: Activated caspase 8 by flow cytometry in CRC cells. Format: cell-based, human. To be noted: oligonucleotide 100 nM 36 hours, FIGS. 4A, 4B. The procedure: as §1
Data set [3] concerns HCT-116 cells. Kind of data set: Cell death by AnnexinV/PI flow cytometry in HCT-116 cells. Format: cell-based, human. To be noted: 48 hours, AS 0.5 nM and 100 nM, FIG. 3H. As to the method:
as §1

The values that follow come from US20220145303A1, “FRAGILE X MENTAL RETARDATION PROTEIN INTERFERING OLIGONUCLEOTIDES AND METHODS OF USING SAME” (Nogra Pharma Limited, priority 2019, published 2022).

“5′-TCCACCACCAGCTCCTCCAT-3′ (all phosphorothioate, sugars by position and methylation of C not given here) [FMRP antisense oligonucleotide, Phosphorothioate single-stranded antisense oligonucleotides complementary to human FMRP]”: the “number of AnnexinV+ or AnnexinV+ PI+ cells” value is recorded as “neither HCT-116 cells nor HCRC-1ct cells treated with FMRP antisense oligonucleotide exhibited an increased number” in the data set with HCEC-1ct cells, “increased number of AnnexinV^+ or AnnexinV^+ Pt cells” in the data set with DLD-1 cells and “neither HCT-116 cells nor HCRC-1ct cells treated with FMRP antisense oligonucleotide exhibited an increased number” in the data set on HCT-116 cells [3]. Moreover, the “phosphorylation of MLKL” value in the data set on MLKL is reported as “increased phosphorylation”. Also, the “number of cells migrating across Matrigel-coated Transwell insert” value in the data set with HCT-116 cells [1] was “significantly reduced migration”. In the data set on DLD-1 cell lines, the “relative percentage of cells in G2/M, S, or G0/G1 cell cycle phases” value is listed as “did not affect”. Further, in the data set with HCT-116 cells [2], the “percentage of cell-covered area (pseudo-wound)” value is reported as “significantly reduced the percentage of cells covering a pseudo-“wound””. For the same substance, the “total protein expression levels of RIPK1” value with RIPK1 (AS 0.5 nM and 100 nM, FIG. 6A) is listed as “increased the total protein expression levels of RIPK1”. Moreover, in the data set on RIPK1 (FIGS. 6A, 6B), the “phosphorylation of RIPK1” value is listed as “increased phosphorylation”. Moreover, in the data set with caspase 8, the “percentage of activated caspase 8-positive cells” value is recorded as “did not alter”.
